Source: patent US20240366589A1, “NHE3-BINDING COMPOUNDS AND METHODS FOR INHIBITING PHOSPHATE TRANSPORT” (Ardelyx, Inc., priority 2013, published 2024)

Assays:
Human NHE3 = molecular target: T1, Human NHE3 (Homo sapiens, UniProt P48764); test: Cell-based NHE3 activity under prompt conditions (OK cells, BCECF pH recovery), human NHE3; conditions: prompt conditions
T1 construct: expressed in transfected cells; host or cells: Opossum kidney (OK) cells (ATCC), electroporation
T1 sequence (P48764 26-834): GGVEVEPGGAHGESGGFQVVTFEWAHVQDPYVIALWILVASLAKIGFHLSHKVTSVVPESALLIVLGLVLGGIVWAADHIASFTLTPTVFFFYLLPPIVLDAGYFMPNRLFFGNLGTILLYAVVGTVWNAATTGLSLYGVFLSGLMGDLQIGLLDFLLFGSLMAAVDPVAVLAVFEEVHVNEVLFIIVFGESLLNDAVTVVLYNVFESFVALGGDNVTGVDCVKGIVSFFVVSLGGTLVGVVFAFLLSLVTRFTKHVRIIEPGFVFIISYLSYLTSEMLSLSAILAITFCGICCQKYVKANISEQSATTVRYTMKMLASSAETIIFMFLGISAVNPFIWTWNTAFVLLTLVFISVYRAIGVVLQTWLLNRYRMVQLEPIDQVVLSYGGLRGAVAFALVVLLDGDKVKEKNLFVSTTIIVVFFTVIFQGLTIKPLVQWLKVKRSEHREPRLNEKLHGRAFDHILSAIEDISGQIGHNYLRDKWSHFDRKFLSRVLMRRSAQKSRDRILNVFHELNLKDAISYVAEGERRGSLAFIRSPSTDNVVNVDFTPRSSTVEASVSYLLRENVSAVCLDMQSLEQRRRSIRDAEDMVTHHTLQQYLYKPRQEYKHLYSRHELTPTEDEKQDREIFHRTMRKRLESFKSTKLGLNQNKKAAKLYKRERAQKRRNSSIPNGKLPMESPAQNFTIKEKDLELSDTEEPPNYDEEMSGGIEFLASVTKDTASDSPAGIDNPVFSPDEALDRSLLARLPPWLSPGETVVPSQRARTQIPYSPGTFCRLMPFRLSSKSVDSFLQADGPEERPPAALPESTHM
Procedure, shortened: (§1)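 OK cells electroporated with rat or human NHE3 gene, loaded 30 min at room temperature with 5 μM BCECF-AM in NH4Cl-HEPES pH 7.4.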

[1] = test system: absorption of sodium from the intestinal lumen; test: Inhibition of intestinal sodium absorption: urinary sodium (uNa) 16 h after single oral dose in rats; type: in vivo, rat; conditions: oral gavage, 16 h post-dose
Procedure, shortened: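 Eight-week-old Sprague-Dawley rats (n=6) given single oral gavage of compound or water vehicle in the late afternoon, then kept in metabolic cages with chow and water ad libitum. Urine collected over 16 h; sodium quantified by ion chromatography and expressed as % of vehicle mean, compared by one-way ANOVA with Dunnett's test.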

Rat NHE3 = molecular target: T2, Rat NHE3 (Rattus norvegicus, UniProt P26433); test: Cell-based NHE3 activity under prompt conditions (OK cells, BCECF pH recovery), rat NHE3; conditions: prompt conditions
T2 construct: expressed in transfected cells; host or cells: Opossum kidney (OK) cells (ATCC), electroporation
Procedure, shortened: as §1

[2] = test system: phosphorus and calcium levels in the urine of rats; test: Urinary excretion of phosphate and calcium in rats (16 h overnight urine); type: in vivo, rat; conditions: rats, oral gavage, 16 h post-dose
[3] = test system: absorption of sodium from the intestinal lumen; test: Fecal form score (FFS) 16 h after oral dose in rats; type: in vivo, rat; conditions: oral gavage, 16 h post-dose, scale 1-5
Procedure, shortened: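 Eight-week-old Sprague-Dawley rats (n=6) dosed by oral gavage with compound or water vehicle between 4 and 5 PM, then housed in metabolic cages with food and water ad libitum. At 16 h, fecal form scored 1 (normal pellet) to 5 (liquid streams) by two observers; group mean reported.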

T2 sequence (P26433 29-831): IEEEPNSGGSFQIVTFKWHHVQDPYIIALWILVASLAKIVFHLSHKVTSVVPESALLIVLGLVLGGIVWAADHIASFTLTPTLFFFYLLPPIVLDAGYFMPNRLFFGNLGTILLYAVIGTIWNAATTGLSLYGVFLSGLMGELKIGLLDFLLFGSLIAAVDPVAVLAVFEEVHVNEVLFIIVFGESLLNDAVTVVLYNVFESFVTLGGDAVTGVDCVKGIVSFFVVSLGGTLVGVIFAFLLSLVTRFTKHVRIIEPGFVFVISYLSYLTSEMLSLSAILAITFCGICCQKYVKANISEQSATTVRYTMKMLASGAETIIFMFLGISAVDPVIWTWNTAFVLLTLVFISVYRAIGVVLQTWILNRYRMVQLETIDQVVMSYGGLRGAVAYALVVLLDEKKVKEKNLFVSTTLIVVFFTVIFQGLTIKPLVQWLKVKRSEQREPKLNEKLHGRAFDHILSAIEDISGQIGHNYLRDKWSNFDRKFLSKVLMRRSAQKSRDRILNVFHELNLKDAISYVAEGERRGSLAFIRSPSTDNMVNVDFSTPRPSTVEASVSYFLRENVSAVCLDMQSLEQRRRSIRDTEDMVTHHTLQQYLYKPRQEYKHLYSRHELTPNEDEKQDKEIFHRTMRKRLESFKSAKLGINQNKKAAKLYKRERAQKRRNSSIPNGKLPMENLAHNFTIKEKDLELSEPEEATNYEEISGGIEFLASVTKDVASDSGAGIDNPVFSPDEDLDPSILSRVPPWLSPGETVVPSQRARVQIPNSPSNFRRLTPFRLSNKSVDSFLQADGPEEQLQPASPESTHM

| Structure (SMILES) | Prompt Human NHE3 pIC50 (Human NHE3) | Urine Na % of control ([1]; dose 10 mg/kg) | Prompt Rat NHE3 pIC50 (Rat NHE3) | Urine P % of control ([2]; dose 10 mg/kg) | Fecal Form Score average ([3]; dose 10 mg/kg) | Urine Na % of control ([1]; dose 3 mg/kg) | Urine P % of control ([2]; dose 3 mg/kg) | Fecal Form Score average ([3]; dose 3 mg/kg) | Urine Na % of control ([1]; dose 1 mg/kg) | Urine P % of control ([2]; dose 1 mg/kg) | Fecal Form Score average ([3]; dose 1 mg/kg) |
| --- | --- | --- | --- | --- | --- | --- | --- | --- | --- | --- | --- |
| C/C(=C\c1cc(F)c(Oc2ccc(S(=O)(=O)NCCOCCOCCOCCNC(=O)N(C)CCCCN(C)C(=O)NCCOCCOCCOCCNS(=O)(=O)c3ccc(Oc4c(F)cc(/C=C(\C)C(=O)N=C(N)N)cc4F)cc3)cc2)c(F)c1)C(=O)N=C(N)N [compound 30] | 8.40 | 100% | 7.80 | 104% | 1 | – | – | – | – | – | – |
| CN(C)[C@H]1Cc2ccc(Cl)cc2[C@@H]1Oc1ccc(S(=O)(=O)NCCOCCOCCNC(=O)NCCCCNC(=O)NCCOCCOCCNS(=O)(=O)c2ccc(O[C@H]3c4cc(Cl)ccc4C[C@@H]3N(C)C)cc2)cc1 [compound 116] | 8.30 | 84% | <5.00 | 130% | 1 | – | – | – | – | – | – |
| CN1Cc2c(Cl)cc(Cl)cc2[C@H](c2cccc(S(=O)(=O)NCCOCCOCCNC(=O)CCC(CCC(=O)NCCOCCOCCNS(=O)(=O)c3cccc([C@@H]4CN(C)Cc5c(Cl)cc(Cl)cc54)c3)(CCC(=O)NCCOCCOCCNS(=O)(=O)c3cccc([C@@H]4CN(C)Cc5c(Cl)cc(Cl)cc54)c3)NC(=O)N(C)C)c2)C1 [compound 129] | 6.90 | – | 5.60 | – | – | 16% | 48% | 2 | – | – | – |
| CN1Cc2c(Cl)cc(Cl)cc2[C@H](c2cccc(S(=O)(=O)NCCOCCOCCOCCNC(=O)CCC(N)(CCC(=O)NCCOCCOCCOCCNS(=O)(=O)c3cccc([C@@H]4CN(C)Cc5c(Cl)cc(Cl)cc54)c3)CCC(=O)NCCOCCOCCOCCNS(=O)(=O)c3cccc([C@@H]4CN(C)Cc5c(Cl)cc(Cl)cc54)c3)c2)C1 [compound 90] | 7.85 | 38% | 7.20 | 20% | 5 | 30% | 58% | 1 | 76% | 65% | 1 |
| CN1Cc2c(Cl)cc(Cl)cc2[C@H](c2cccc(S(=O)(=O)NCCOCCOCCN(C)C(=O)CCC(CCC(=O)N(C)CCOCCOCCNS(=O)(=O)c3cccc([C@@H]4CN(C)Cc5c(Cl)cc(Cl)cc54)c3)(CCC(=O)N(C)CCOCCOCCNS(=O)(=O)c3cccc([C@@H]4CN(C)Cc5c(Cl)cc(Cl)cc54)c3)NC(=O)COCC(=O)O)c2)C1 [compound 177] | 7.80 | – | 7.70 | – | – | 52% | 45% | 2 | – | – | – |
| CN1Cc2c(Cl)cc(Cl)cc2[C@H](c2cccc(S(=O)(=O)NCCOCCOCCOCCNC(=O)CN(CCN(CC(=O)O)CC(=O)NCCOCCOCCOCCNS(=O)(=O)c3cccc([C@@H]4CN(C)Cc5c(Cl)cc(Cl)cc54)c3)CC(=O)O)c2)C1 [compound 67] | 8.70 | 4% | 8.00 | 67% | 2 | – | – | – | – | – | – |
| CN(C)[C@H]1Cc2c(Cl)cc(Cl)cc2[C@@H]1Oc1ccc(S(=O)(=O)NCCOCCOCCNC(=O)CCC(C)(CCC(=O)NCCOCCOCCNS(=O)(=O)c2ccc(O[C@H]3c4cc(Cl)cc(Cl)c4C[C@@H]3N(C)C)cc2)NC(=O)CCC(=O)O)cc1 [compound 179] | 7.77 | – | 8.00 | – | – | 40% | 66% | 1 | – | – | – |
